Tests used:
Type in all cases: in vivo
Cyperus difformis = test: Test Example 3: herbicidal effect by application to foliage (Wagner pot, water depth 0.1-0.5 cm); conditions: Nineteenth Table; application to foliage; application herbicide amount 320 g/ha
Procedure, shortened: (§1)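 Post-emergence foliar application at a stated g/ha rate to plants grown 14 days from seed in alluvial soil, greenhouse 25–30 °C. Visual score after 3 weeks: 0 (≤5% effect) through 5 (≥90%).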

[1] = system: Echinochloa crus-galli var. crus-galli; test: as above; conditions: Nineteenth Table; application to foliage; application herbicide amount 320 g/ha
Procedure, shortened: as §1

Leptochloa chinensis = test: as above; conditions: Nineteenth Table; application to foliage; application herbicide amount 320 g/ha
Procedure, shortened: as §1

[2] = system: directly sowed Oryza sativa; test: Test Example 3: effect on crop by application to foliage (Wagner pot, water depth 0.1-0.5 cm); conditions: Nineteenth Table; application to foliage; application herbicide amount 320 g/ha
Procedure, shortened: as §1

Abutilon theophrasti = test: Test Example 4: herbicidal effect by application to foliage (diluvial soil, plastic box); conditions: 320 g/ha; for M (Abutilon theophrasti) herbicidal effect grade: foliage application; for herbicidal effect, M (Abutilon theophrasti): application to foliage
Procedure, shortened: (§2)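 Plants were grown in sterilized diluvial soil in a greenhouse at 25-30° C for 14 days, then sprayed on stems and leaves with water-diluted emulsion formulation at set rates in g/ha. Weed control and crop injury were scored 3 weeks after treatment on a 0-5 herbicidal-ratio scale, from 0 (≤5%) to 5 (≥90%).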

Alopecurus myosuroides = test: as above; conditions: 320 g/ha; for J (Alopecurus myosuroides) herbicidal effect grade: foliage application; for herbicidal effect, J (Alopecurus myosuroides): application to foliage
Procedure, shortened: as §2

Amaranthus retroflexus = test: as above; conditions: 320 g/ha; for N (Amaranthus retroflexus) herbicidal effect grade: foliage application; for herbicidal effect, N (Amaranthus retroflexus): application to foliage
Procedure, shortened: as §2

Apera spica-venti. = test: as above; conditions: 320 g/ha; for L (Apera spica-venti.) herbicidal effect grade: foliage application; for herbicidal effect, L (Apera spica-venti.): application to foliage
Procedure, shortened: as §2

Avena fatua = test: as above; conditions: 320 g/ha; for I (Avena fatua) herbicidal effect grade: foliage application; for herbicidal effect, I (Avena fatua): application to foliage
Procedure, shortened: as §2

Chenopodium album = test: as above; conditions: 320 g/ha; for O (Chenopodium album) herbicidal effect grade: foliage application; for herbicidal effect, O (Chenopodium album): application to foliage
Procedure, shortened: as §2

Digitaria ciliaris = test: as above; conditions: 320 g/ha; for F (Digitaria ciliaris) herbicidal effect grade: foliage application; for herbicidal effect, F (Digitaria ciliaris): application to foliage
Procedure, shortened: as §2

[3] = system: Echinochloa crus-galli var. crus-galli; test: as above; conditions: 320 g/ha; for H (Echinochloa crus-galli var. crus-galli) herbicidal effect grade: foliage application; for herbicidal effect, H (Echinochloa crus-galli var. crus-galli): application to foliage
Procedure, shortened: as §2

Galium spurium = test: as above; conditions: 320 g/ha; for Q (Galium spurium) herbicidal effect grade: foliage application; for herbicidal effect, Q (Galium spurium): application to foliage
Procedure, shortened: as §2

Lolium multiflorum Lam. = test: as above; conditions: 320 g/ha; for K (Lolium multiflorum Lam.) herbicidal effect grade: foliage application; for herbicidal effect, K (Lolium multiflorum Lam.): application to foliage
Procedure, shortened: as §2

Setaria viridis = test: as above; conditions: 320 g/ha; for G (Setaria viridis) herbicidal effect grade: foliage application; for herbicidal effect, G (Setaria viridis): application to foliage
Procedure, shortened: as §2

Stellaria media = test: as above; conditions: 320 g/ha; for P (Stellaria media) herbicidal effect grade: foliage application; for herbicidal effect, P (Stellaria media): application to foliage
Procedure, shortened: as §2

Veronica persica = test: as above; conditions: 320 g/ha; for R (Veronica persica) herbicidal effect grade: foliage application; for herbicidal effect, R (Veronica persica): application to foliage
Procedure, shortened: as §2

CC(C)c1nnc2c(C(=O)Nc3nnnn3-c3ccccc3)ccc(C(F)(F)F)n12 [2-073]
E (herbicidal effect grade) (Cyperus difformis): 5 (Herbicidal ratio of 90% or more (almost completely withered))
H (herbicidal effect grade) [1]: 4 (Herbicidal ratio of 70% or more and less than 90%)
D (herbicidal effect grade) (Leptochloa chinensis): 3 (Herbicidal ratio of 40% or more and less than 70%)
b (effect on crop grade) [2]: 2 (Herbicidal ratio of 20% or more and less than 40%)
M (Abutilon theophrasti) herbicidal effect grade (Abutilon theophrasti): 3 (Herbicidal ratio of 40% or more and less than 70%)
J (Alopecurus myosuroides) herbicidal effect grade (Alopecurus myosuroides): 0 (Herbicidal ratio of 5% or less (almost no effect))
N (Amaranthus retroflexus) herbicidal effect grade (Amaranthus retroflexus): 3 (Herbicidal ratio of 40% or more and less than 70%)
L (Apera spica-venti.) herbicidal effect grade (Apera spica-venti.): 0 (Herbicidal ratio of 5% or less (almost no effect))
I (Avena fatua) herbicidal effect grade (Avena fatua): 1 (Herbicidal ratio of 5% or more and less than 20%)
O (Chenopodium album) herbicidal effect grade (Chenopodium album): 5 (Herbicidal ratio of 90% or more (almost completely withered))
F (Digitaria ciliaris) herbicidal effect grade (Digitaria ciliaris): 1 (Herbicidal ratio of 5% or more and less than 20%)
H (Echinochloa crus-galli var. crus-galli) herbicidal effect grade [3]: 4 (Herbicidal ratio of 70% or more and less than 90%)
Q (Galium spurium) herbicidal effect grade (Galium spurium): 0 (Herbicidal ratio of 5% or less (almost no effect))
K (Lolium multiflorum Lam.) herbicidal effect grade (Lolium multiflorum Lam.): 1 (Herbicidal ratio of 5% or more and less than 20%)
G (Setaria viridis) herbicidal effect grade (Setaria viridis): 1 (Herbicidal ratio of 5% or more and less than 20%)
P (Stellaria media) herbicidal effect grade (Stellaria media): 4 (Herbicidal ratio of 70% or more and less than 90%)
R (Veronica persica) herbicidal effect grade (Veronica persica): 2 (Herbicidal ratio of 20% or more and less than 40%)

COCCNc1nnc2c(C(=O)Nc3nnnn3C)ccc(C(F)(F)F)n12 [2-074]
E (herbicidal effect grade) (Cyperus difformis): 4 (Herbicidal ratio of 70% or more and less than 90%)
H (herbicidal effect grade) [1]: 5 (Herbicidal ratio of 90% or more (almost completely withered))
D (herbicidal effect grade) (Leptochloa chinensis): 5 (Herbicidal ratio of 90% or more (almost completely withered))
b (effect on crop grade) [2]: 5 (Herbicidal ratio of 90% or more (almost completely withered))
M (Abutilon theophrasti) herbicidal effect grade (Abutilon theophrasti): 4 (Herbicidal ratio of 70% or more and less than 90%)
J (Alopecurus myosuroides) herbicidal effect grade (Alopecurus myosuroides): 3 (Herbicidal ratio of 40% or more and less than 70%)
N (Amaranthus retroflexus) herbicidal effect grade (Amaranthus retroflexus): 5 (Herbicidal ratio of 90% or more (almost completely withered))
L (Apera spica-venti.) herbicidal effect grade (Apera spica-venti.): 3 (Herbicidal ratio of 40% or more and less than 70%)
I (Avena fatua) herbicidal effect grade (Avena fatua): 4 (Herbicidal ratio of 70% or more and less than 90%)
O (Chenopodium album) herbicidal effect grade (Chenopodium album): 5 (Herbicidal ratio of 90% or more (almost completely withered))
F (Digitaria ciliaris) herbicidal effect grade (Digitaria ciliaris): 5 (Herbicidal ratio of 90% or more (almost completely withered))
H (Echinochloa crus-galli var. crus-galli) herbicidal effect grade [3]: 5 (Herbicidal ratio of 90% or more (almost completely withered))
Q (Galium spurium) herbicidal effect grade (Galium spurium): 3 (Herbicidal ratio of 40% or more and less than 70%)
K (Lolium multiflorum Lam.) herbicidal effect grade (Lolium multiflorum Lam.): 3 (Herbicidal ratio of 40% or more and less than 70%)
G (Setaria viridis) herbicidal effect grade (Setaria viridis): 4 (Herbicidal ratio of 70% or more and less than 90%)
P (Stellaria media) herbicidal effect grade (Stellaria media): 4 (Herbicidal ratio of 70% or more and less than 90%)
R (Veronica persica) herbicidal effect grade (Veronica persica): 5 (Herbicidal ratio of 90% or more (almost completely withered))

Cn1nnnc1NC(=O)c1ccc(C(F)(F)F)n2c(N3CCOCC3)nnc12 [2-075]
E (herbicidal effect grade) (Cyperus difformis): 5 (Herbicidal ratio of 90% or more (almost completely withered))
H (herbicidal effect grade) [1]: 5 (Herbicidal ratio of 90% or more (almost completely withered))
D (herbicidal effect grade) (Leptochloa chinensis): 5 (Herbicidal ratio of 90% or more (almost completely withered))
b (effect on crop grade) [2]: 5 (Herbicidal ratio of 90% or more (almost completely withered))
herbicidal effect, M (Abutilon theophrasti) (Abutilon theophrasti): 5 (Herbicidal ratio of 90% or more (almost completely withered))
herbicidal effect, J (Alopecurus myosuroides) (Alopecurus myosuroides): 4 (Herbicidal ratio of 70% or more and less than 90%)
herbicidal effect, N (Amaranthus retroflexus) (Amaranthus retroflexus): 5 (Herbicidal ratio of 90% or more (almost completely withered))
herbicidal effect, L (Apera spica-venti.) (Apera spica-venti.): 4 (Herbicidal ratio of 70% or more and less than 90%)
herbicidal effect, I (Avena fatua) (Avena fatua): 5 (Herbicidal ratio of 90% or more (almost completely withered))
herbicidal effect, O (Chenopodium album) (Chenopodium album): 5 (Herbicidal ratio of 90% or more (almost completely withered))
herbicidal effect, F (Digitaria ciliaris) (Digitaria ciliaris): 5 (Herbicidal ratio of 90% or more (almost completely withered))
herbicidal effect, H (Echinochloa crus-galli var. crus-galli) [3]: 5 (Herbicidal ratio of 90% or more (almost completely withered))
herbicidal effect, Q (Galium spurium) (Galium spurium): 4 (Herbicidal ratio of 70% or more and less than 90%)
herbicidal effect, K (Lolium multiflorum Lam.) (Lolium multiflorum Lam.): 4 (Herbicidal ratio of 70% or more and less than 90%)
herbicidal effect, G (Setaria viridis) (Setaria viridis): 5 (Herbicidal ratio of 90% or more (almost completely withered))
herbicidal effect, P (Stellaria media) (Stellaria media): 5 (Herbicidal ratio of 90% or more (almost completely withered))
herbicidal effect, R (Veronica persica) (Veronica persica): 5 (Herbicidal ratio of 90% or more (almost completely withered))

Cn1nnnc1NC(=O)c1ccc(C(F)(F)F)n2c(SCc3ccccc3)nnc12 [2-076]
E (herbicidal effect grade) (Cyperus difformis): 4 (Herbicidal ratio of 70% or more and less than 90%)
H (herbicidal effect grade) [1]: 5 (Herbicidal ratio of 90% or more (almost completely withered))
D (herbicidal effect grade) (Leptochloa chinensis): 4 (Herbicidal ratio of 70% or more and less than 90%)
b (effect on crop grade) [2]: 1 (Herbicidal ratio of 5% or more and less than 20%)
herbicidal effect, M (Abutilon theophrasti) (Abutilon theophrasti): 4 (Herbicidal ratio of 70% or more and less than 90%)
herbicidal effect, J (Alopecurus myosuroides) (Alopecurus myosuroides): 1 (Herbicidal ratio of 5% or more and less than 20%)
herbicidal effect, N (Amaranthus retroflexus) (Amaranthus retroflexus): 5 (Herbicidal ratio of 90% or more (almost completely withered))
herbicidal effect, L (Apera spica-venti.) (Apera spica-venti.): 2 (Herbicidal ratio of 20% or more and less than 40%)
herbicidal effect, I (Avena fatua) (Avena fatua): 1 (Herbicidal ratio of 5% or more and less than 20%)
herbicidal effect, O (Chenopodium album) (Chenopodium album): 5 (Herbicidal ratio of 90% or more (almost completely withered))
herbicidal effect, F (Digitaria ciliaris) (Digitaria ciliaris): 3 (Herbicidal ratio of 40% or more and less than 70%)
herbicidal effect, H (Echinochloa crus-galli var. crus-galli) [3]: 5 (Herbicidal ratio of 90% or more (almost completely withered))
herbicidal effect, Q (Galium spurium) (Galium spurium): 3 (Herbicidal ratio of 40% or more and less than 70%)
herbicidal effect, K (Lolium multiflorum Lam.) (Lolium multiflorum Lam.): 1 (Herbicidal ratio of 5% or more and less than 20%)
herbicidal effect, G (Setaria viridis) (Setaria viridis): 3 (Herbicidal ratio of 40% or more and less than 70%)
herbicidal effect, P (Stellaria media) (Stellaria media): 5 (Herbicidal ratio of 90% or more (almost completely withered))
herbicidal effect, R (Veronica persica) (Veronica persica): 5 (Herbicidal ratio of 90% or more (almost completely withered))

COc1ccc(CSc2nnc3c(C(=O)Nc4nnnn4C)ccc(C(F)(F)F)n23)cc1 [2-077]
E (herbicidal effect grade) (Cyperus difformis): 3 (Herbicidal ratio of 40% or more and less than 70%)
H (herbicidal effect grade) [1]: 2 (Herbicidal ratio of 20% or more and less than 40%)
D (herbicidal effect grade) (Leptochloa chinensis): 4 (Herbicidal ratio of 70% or more and less than 90%)
b (effect on crop grade) [2]: 0 (Herbicidal ratio of 5% or less (almost no effect))
herbicidal effect, M (Abutilon theophrasti) (Abutilon theophrasti): 4 (Herbicidal ratio of 70% or more and less than 90%)
herbicidal effect, J (Alopecurus myosuroides) (Alopecurus myosuroides): 0 (Herbicidal ratio of 5% or less (almost no effect))
herbicidal effect, N (Amaranthus retroflexus) (Amaranthus retroflexus): 5 (Herbicidal ratio of 90% or more (almost completely withered))
herbicidal effect, L (Apera spica-venti.) (Apera spica-venti.): 0 (Herbicidal ratio of 5% or less (almost no effect))
herbicidal effect, I (Avena fatua) (Avena fatua): 0 (Herbicidal ratio of 5% or less (almost no effect))
herbicidal effect, O (Chenopodium album) (Chenopodium album): 5 (Herbicidal ratio of 90% or more (almost completely withered))
herbicidal effect, F (Digitaria ciliaris) (Digitaria ciliaris): 4 (Herbicidal ratio of 70% or more and less than 90%)
herbicidal effect, H (Echinochloa crus-galli var. crus-galli) [3]: 4 (Herbicidal ratio of 70% or more and less than 90%)
herbicidal effect, Q (Galium spurium) (Galium spurium): 3 (Herbicidal ratio of 40% or more and less than 70%)
herbicidal effect, K (Lolium multiflorum Lam.) (Lolium multiflorum Lam.): 0 (Herbicidal ratio of 5% or less (almost no effect))
herbicidal effect, G (Setaria viridis) (Setaria viridis): 2 (Herbicidal ratio of 20% or more and less than 40%)
herbicidal effect, P (Stellaria media) (Stellaria media): 4 (Herbicidal ratio of 70% or more and less than 90%)
herbicidal effect, R (Veronica persica) (Veronica persica): 3 (Herbicidal ratio of 40% or more and less than 70%)

Reference: US9708314B2, “Heterocyclic amide compound” (NISSAN CHEMICAL INDUSTRIES, LTD., priority 2013, dated 2017)
